# According to patent US10073082B2, “Proteasome inhibition assay and methods of use” (UNIVERSITY HEALTH NETWORK, priority 2013, dated 2018):
# Experiments:
# granulocytes = assay: IκB degradation agonists in whole blood: IκB degradation and signaling pathway activation in granulocytes; format: cell-based, human
# Description: (§1) Whole blood samples from normal human donors were collected. 100 μL aliquots of the whole blood were inserted into the bottom of 12×75 mm tubes. In order to reduce the potential for contamination of the sample with unfixed cells, blood was removed from the side of the tubes with a cotton swab. 1-2 μL of a proteasome effector was added to a first portion of the tubes and these tubes were incubated for 2 hours at 37° C. in a water bath. In this example, the proteasome effector was Bortezomib or MG-132, both proteasome inhibitors. Following pretreatment with the proteasome effector, 2 μL of […] stock solution (100 ng) of an IκB degradation agonist was added to the tubes and the tubes were incubated from 1 minute to 60 minutes at 37° C. in a water bath. In this example, the agonist was lipopolysaccharide (LPS). A second portion of the tubes were treated with the IκB degradation agonist and no proteasome effector. 2 μL of an IκB degradation agonist was added to these tubes and the tubes were incubated from 1 minute to 60 minutes as described above. For control tubes, 2 μL of phosphate buffered saline (PBS) was added to the tubes and the tubes were incubated as described above.
# (§2) Following incubation, the cells were fixed and permeabilized with a PerFix-P® kit (Beckman Coulter, Inc., Brea. Calif.) according to the manufacturer's instructions. The fixed and permeabilized cells were then washed with 2 mL of Wash Buffer (PBS (w/o Ca++/Mg++) with 2% fetal bovine serum (FBS), sterile filtered (0.22 μm filter)) in the tubes and centrifuged at 500×g for 4 minutes. The cell pellet was resuspended in 2 mL of cold (4° C.) Wash Buffer, centrifuged at 500×g for 4 minutes, and the supernatant was aspirated.
# (§3) Following the above wash steps, the fixed and permeabilized cells were resuspended in 100 μL of cold Wash Buffer comprising antibodies to specific intracellular antigens (e.g., signaling targets including P-ERK, P-Akt, P-p38, P-SAPK, P-S6, and antibodies to IκB). The antibodies were labeled with different fluorochromes (e.g. fluorophores) to facilitate their-individual measurement of the intracellular antigens. […] The supernatant was aspirated and the cell pellet was resuspended in 350 μL of Resuspension Buffer (PerFix-P® kit) and analyzed on a flow cytometer (GALLIOS™) using a protocol with defined population gates and series of dual parameter histograms. A CD45-KO vs. SS dual parameter histogram was collected and a gate around the leukocyte population based on the CD45+ fluorescence and SS characteristics was drawn to exclude debris (CD45 negative events). […] The collected flow cytometric data was analyzed using KALUZA™ software.
# [1] = tested on: peripheral blood lymphocytes; assay: IκB degradation agonists in whole blood: IκB degradation and signaling pathway activation in lymphocytes; format: cell-based, human; settings: for Pathways Activated: Target Cell Population: Lymphocytes (subpopulation)
# Description: as §1, §2
# (§4) Following the above wash steps, the fixed and permeabilized cells were resuspended in 100 μL of cold Wash Buffer comprising antibodies to specific intracellular antigens (e.g., signaling targets including P-ERK, P-Akt, P-p38, P-SAPK, P-S6, and antibodies to IκB). The antibodies were labeled with different fluorochromes (e.g. fluorophores) to facilitate their-individual measurement of the intracellular antigens. In order to target specific cell populations in the assay, antibodies capable of differentiating cell populations within the blood sample were also included in some of the tubes. For example, anti-CD14 antibodies were included to specifically label monocytes, anti-CD3 antibodies or anti-CD19 antibodies were included to specifically label T or B-cells respectively, and/or anti-CD38/CD138 antibodies were included to specifically label plasma cells. The cells were incubated with the antibodies for 30 minutes at room temperature and then the cells were washed in 2 mL of cold Wash Buffer and centrifuged as described above. The supernatant was aspirated and the cell pellet was resuspended in 350 μL of Resuspension Buffer (PerFix-P® kit) and analyzed on a flow cytometer (GALLIOS™) using a protocol with defined population gates and series of dual parameter histograms. A CD45-KO vs. SS dual parameter histogram was collected and a gate around the leukocyte population based on the CD45+ fluorescence and SS characteristics was drawn to exclude debris (CD45 negative events). A minimum of 2,500 CD14+ events were collected. A stop count region was set from the CD14-PC7 vs. SS histogram gated on monocytes. Dual parameter histograms gated on the appropriate populations were created to measure the populations of interest. The collected flow cytometric data was analyzed using KALUZA™ software.
# (§5) Phosphorylation of signaling pathways activated by TNF-α, including ERK, Akt, and the ribosomal S6 protein, was monitored together with the degradation of IκB in peripheral blood WBCs. Whole blood samples were treated, activated, and processed as described in Example 1 and the degradation of IκB in peripheral blood cells was monitored by flow cytometry as described in Example 1. The IκB degradation agonist used in this example was TNF-α. […]
# monocytes of MM patients = assay: LPS stimulation of monocytes in whole blood of Multiple Myeloma patients; format: cell-based, human; settings: 10 min LPS
# Description: (§6) Whole blood samples from eight Multiple Myeloma (MM) patients were obtained. For three of the MM patients (MM003-MM005), whole blood samples were tested with or without LPS activation (10 min stimulation at 37° C.) and the samples were processed and analyzed for IκB degradation and signaling pathway activation as described in Example 1.
# (§7) Blood samples from the 5 remaining MM patients samples were pretreated with Bortezomib or RP-171 (Carfilzomib, a covalent proteasome inhibitor) and then tested and analyzed with or without LPS activation (10 min LPS at 37 37° C.) for IκB degradation and signaling pathway activation as described in Example 1. […] All of the MM patients tested were receiving Bortezomib therapy.
# [2] = tested on: peripheral blood monocytes; assay: IκB degradation agonists in whole blood: IκB degradation and signaling pathway activation in monocytes; format: cell-based, human; settings: for Pathways Activated: Target Cell Population: Monocytes
# Description: as §1, §2, §4, §5
# [3] = tested on: IκB in peripheral blood monocytes; assay: Flow cytometry assay, whole blood pretreated with effector: LPS induced degradation of IκB in monocytes; format: cell-based, human; settings: monocytes, whole blood pretreated with inhibitor 2 hours at 37° C., then LPS; within 10 minutes
# Description: as §1, with “2 μL of an IκB degradation agonist was added to these tubes and the tubes were incubated from 1 minute to 60 minutes as described above. For control tubes, 2 μL of phosphate buffered saline (PBS) was added to the tubes and the tubes were incubated as described above.” left out
# as §3, with “IκB).” for “IκB). The antibodies were labeled with different fluorochromes (e.g. fluorophores) to facilitate their-individual measurement of the intracellular antigens.”
# Phosphorylation of signaling pathways activated by LPS, including ERK, Akt (activated by PI3 Kinase), and the ribosomal S6 protein (a marker of protein synthesis) were also monitored together with the degradation of IκB. […] The degradation of IκB in cells pretreated with MG-132 or GDC-0941 was monitored by flow cytometry as described in Example 1. […]
# [4] = tested on: proteasome activity (IκB degradation, ERK activation) in monocytes; assay: Proteasome inhibition in blood monocytes of Multiple Myeloma patients receiving Bortezomib therapy (LPS stimulation ex vivo); parameters: species or system human
# Description: as §6, §7
# [5] = tested on: IκB in peripheral blood lymphocytes; assay: Flow cytometry assay, whole blood pretreated with effector: LPS induced degradation of IκB in lymphocytes; format: cell-based, human; settings: whole blood pretreated with inhibitor, then LPS
# Description: (§8) The assay generally comprises treating whole blood with an IκB degradation agonist and/or proteasome effector, fixing the blood cells, permeabilizing the fixed bloods cells, treating the fixed and permeabilized cells with an alcohol treatment to unmask intracellular phosphor-epitopes, and then staining the treated cells with antibodies for flow cytometry analysis.
# (§9) Whole blood samples from normal human donors were collected. 100 μL aliquots of the whole blood were inserted into the bottom of 12×75 mm tubes. In order to reduce the potential for contamination of the sample with unfixed cells, blood was removed from the side of the tubes with a cotton swab. […]
# (§10) Following the above wash steps, the fixed and permeabilized cells were resuspended in 100 μL of cold Wash Buffer comprising antibodies to specific intracellular antigens (e.g., signaling targets including P-ERK, P-Akt, P-p38, P-SAPK, P-S6, and antibodies to IκB). […] The supernatant was aspirated and the cell pellet was resuspended in 350 μL of Resuspension Buffer (PerFix-P® kit) and analyzed on a flow cytometer (GALLIOS™) using a protocol with defined population gates and series of dual parameter histograms. A CD45-KO vs. SS dual parameter histogram was collected and a gate around the leukocyte population based on the CD45+ fluorescence and SS characteristics was drawn to exclude debris (CD45 negative events). […]
# [6] = tested on: IκB in peripheral blood monocytes; assay: TNFα induced degradation of IκB in monocytes from pretreated whole blood; format: cell-based, human; settings: TNFα activated monocytes, whole blood pretreated with inhibitor
# Description: (§11) Whole blood samples from normal human donors were collected. 100 μL aliquots of the whole blood were inserted into the bottom of 12×75 mm tubes. In order to reduce the potential for contamination of the sample with unfixed cells, blood was removed from the side of the tubes with a cotton swab. 1-2 μL of a proteasome effector was added to a first portion of the tubes and these tubes were incubated for 2 hours at 37° C. in a water bath. In this example, the proteasome effector was Bortezomib or MG-132, both proteasome inhibitors. […]
# (§12) Following the above wash steps, the fixed and permeabilized cells were resuspended in 100 μL of cold Wash Buffer comprising antibodies to specific intracellular antigens (e.g., signaling targets including P-ERK, P-Akt, P-p38, P-SAPK, P-S6, and antibodies to IκB). […] The supernatant was aspirated and the cell pellet was resuspended in 350 μL of Resuspension Buffer (PerFix-P® kit) and analyzed on a flow cytometer (GALLIOS™) using a protocol with defined population gates and series of dual parameter histograms. A CD45-KO vs. SS dual parameter histogram was collected and a gate around the leukocyte population based on the CD45+ fluorescence and SS characteristics was drawn to exclude debris (CD45 negative events). […] The collected flow cytometric data was analyzed using KALUZA™ software. […]
# [7] = tested on: P-ERK in peripheral blood monocytes; assay: TNFα induced ERK activation in monocytes from pretreated whole blood; format: cell-based, human; settings: TNFα activated monocytes, whole blood pretreated with inhibitor
# Description: as §11, §12
# IκB in granulocytes = assay: Flow cytometry assay, whole blood pretreated with effector: IκB levels in granulocytes after LPS; format: cell-based, human; settings: whole blood pretreated with inhibitor, then LPS; 60 minutes time period
# Description: as §8, §9, §10
# [8] = three MM patients (MM003-MM005), 10 min LPS at 37° C.
molecule,measurement,setting,value
lipopolysaccharide [LPS],Pathways Activated,granulocytes; Target Cell Population: Granulocytes,P-p38 MAP kinase
same,degradation of IκB in granulocytes,granulocytes; agonist alone,No significant degradation
same,Pathways Activated,[1]; pathway: ERK MAP kinase (Tpl-2),ERK MAP kinase (Tpl-2)
same,Pathways Activated,[1]; pathway: IκB > NFκB,IκB > NFκB
same,Pathways Activated,[1]; pathway: PI3 kinase > Akt,PI3 kinase > Akt
same,degradation of IκB in lymphocytes at 10 min,"[1]; agonist alone, 10 min",no significant degradation
same,loss of IκB,monocytes of MM patients; six MM samples,60-70%
same,percent decrease of IκB MFI,monocytes of MM patients; two MM samples,48%
same,Pathways Activated,[2]; pathway: IκB > NFκB,IκB > NFκB
same,Pathways Activated,[2]; pathway: P-p 38 MAP kinase,P-p 38 MAP kinase
same,Pathways Activated,[2]; pathway: PI3 kinase > Akt,PI3 kinase > Akt
same,Pathways Activated,[2]; pathway: SAP/JNK MAP kinase,SAP/JNK MAP kinase
same,Pathways Activated,[2]; pathway: Tpl-2 > ERK/MAP kinase,Tpl-2 > ERK/MAP kinase
same,loss in measured IκB,"[2]; agonist alone, normal donors, monocytes, within 10 minutes of treatment",60-70%
CC(C)C[C@H](NC(=O)[C@H](Cc1ccccc1)NC(=O)c1cnccn1)B(O)O [Bortezomib],loss in measured IκB,[3],~10%
same,proteasome inhibition,"[4]; all MM patients tested, blood draw a week after the treatment",no proteasome inhibition was detected
same,inhibition of ERK activation following LPS stimulation,[4]; [8],no inhibition
same,inhibition of IκB degradation following LPS stimulation,[4]; [8],no inhibition
same,LPS induced degradation of IκB in lymphocytes,[5],inhibition of LPS induced degradation of IκB
same,degradation of IκB,[6],completely inhibited
same,activation of ERK,[7],completely inhibited
same,degradation of IκB in granulocytes,IκB in granulocytes,No significant degradation
